Test results published in patent US11186592B2, “Thiazolopyridine derivatives as adenosine receptor antagonists” (MERCK PATENT GMBH, priority 2017, dated 2021).
pIC50: −log10 of the molar value.

Legend:
Type in all cases: cell-based
human A2A receptor = biological target: T1, human A2A receptor (Homo sapiens, UniProt P29274); assay: cAMP (HTRF) functional assay, recombinant HEK293 cells expressing human A2A receptor, agonist NECA
T1 construct: expressed in transfected cells; host or cells: HEK293
Protocol: (§1) The functional activities of human A2A, A2B, A1 and A3 receptors were determined by quantification of cAMP, being the second messenger for adenosine receptors.
(§2) Cells were seeded into 384-well plates, forskolin, test compounds and agonists (CPA for A1- and IB-MECA for A3-receptor) were added. After 30 min incubation, HTRF reagents (cAMP dynamic 2, Cis Bio) were added and the cellular cAMP levels were determined using the ENVISION (Perkin Elmer) plate reader. Obtained raw data were normalized against the inhibitor control and the neural control (DMSO) and the normalized data were fitted using GeneData software.

human A2B receptor = biological target: T2, human A2B receptor (Homo sapiens, UniProt P29275); assay: cAMP (HTRF) functional assay, recombinant HEK293 cells expressing human A2B receptor, agonist NECA
T2 construct: expressed in transfected cells; host or cells: HEK293
T2 sequence (P29275 1-332): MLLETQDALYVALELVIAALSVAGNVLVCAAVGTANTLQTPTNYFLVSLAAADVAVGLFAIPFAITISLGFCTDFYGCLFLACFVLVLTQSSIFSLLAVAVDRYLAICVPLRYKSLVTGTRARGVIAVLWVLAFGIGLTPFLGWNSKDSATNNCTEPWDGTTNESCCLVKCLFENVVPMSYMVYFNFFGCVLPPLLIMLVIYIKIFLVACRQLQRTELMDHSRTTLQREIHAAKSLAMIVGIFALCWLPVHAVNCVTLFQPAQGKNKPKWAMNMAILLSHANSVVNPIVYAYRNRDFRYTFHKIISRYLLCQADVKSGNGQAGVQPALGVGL
Protocol: as §1, §2

human A3 receptor = biological target: T3, human A3 receptor (Homo sapiens, UniProt P0DMS8); assay: cAMP (HTRF) functional assay, recombinant CHO cells expressing human A3 receptor, forskolin + agonist IB-MECA
T3 construct: expressed in transfected cells; host or cells: CHO
T3 sequence (P0DMS8 1-318): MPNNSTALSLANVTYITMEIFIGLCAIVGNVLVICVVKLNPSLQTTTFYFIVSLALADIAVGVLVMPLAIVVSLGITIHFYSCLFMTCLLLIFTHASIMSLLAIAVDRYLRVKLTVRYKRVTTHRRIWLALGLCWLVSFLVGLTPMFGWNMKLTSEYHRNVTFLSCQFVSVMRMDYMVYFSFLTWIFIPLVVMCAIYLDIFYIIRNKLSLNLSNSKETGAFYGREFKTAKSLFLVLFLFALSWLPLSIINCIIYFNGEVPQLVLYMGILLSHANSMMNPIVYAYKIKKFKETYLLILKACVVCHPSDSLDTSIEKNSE
Protocol: as §1
(§3) For human A1 and A3 receptors, recombinant CHO cells, expressing either A1 or A3-receptor, were used. As both receptors couple to Gi proteins, the assay protocol was adapted:
as §2

human A1 receptor = biological target: T4, human A1 receptor (Homo sapiens, UniProt P30542); assay: cAMP (HTRF) functional assay, recombinant CHO cells expressing human A1 receptor, forskolin + agonist CPA
T4 construct: expressed in transfected cells; host or cells: CHO
T4 sequence (P30542 1-326): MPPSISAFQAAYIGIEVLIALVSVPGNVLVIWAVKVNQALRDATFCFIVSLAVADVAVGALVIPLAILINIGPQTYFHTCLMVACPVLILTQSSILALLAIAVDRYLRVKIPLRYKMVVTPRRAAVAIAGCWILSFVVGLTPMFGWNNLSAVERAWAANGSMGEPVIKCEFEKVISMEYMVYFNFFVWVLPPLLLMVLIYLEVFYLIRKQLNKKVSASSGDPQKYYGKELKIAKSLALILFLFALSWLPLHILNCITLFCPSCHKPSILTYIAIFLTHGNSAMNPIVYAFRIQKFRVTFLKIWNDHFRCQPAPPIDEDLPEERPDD
Protocol: as §1, §3, §2

T1 sequence (P29274 whole entry): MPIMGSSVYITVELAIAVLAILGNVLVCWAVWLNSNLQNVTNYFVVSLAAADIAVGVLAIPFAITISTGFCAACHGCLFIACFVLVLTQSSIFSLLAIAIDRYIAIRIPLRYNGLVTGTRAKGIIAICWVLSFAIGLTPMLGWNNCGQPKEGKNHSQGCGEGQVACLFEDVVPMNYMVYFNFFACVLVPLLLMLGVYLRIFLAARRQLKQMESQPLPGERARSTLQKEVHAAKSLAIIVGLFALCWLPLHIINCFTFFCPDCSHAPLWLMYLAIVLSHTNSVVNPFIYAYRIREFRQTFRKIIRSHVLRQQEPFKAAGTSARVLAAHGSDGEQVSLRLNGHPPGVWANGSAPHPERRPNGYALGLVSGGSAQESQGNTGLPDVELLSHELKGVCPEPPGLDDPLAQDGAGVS

A pIC50 (human A2A receptor) of over 8.00, a pIC50 (human A2B receptor) of over 7.00 and a pIC50 (human A3 receptor) of over 6.00 were found for `COc1nc(Cl)c(N2CCOCC2)c2sc(NC(=O)c3cnn(C)c3)nc12` [compound 221, 1-Methyl-1H-pyrazole-4-carboxylic acid (6-chloro-4-methoxy-7-morpholin-4-yl-thiazolo[4,5-c]pyridin-2-yl)-amide] in this work.
A pIC50 (human A2A receptor) of over 8.00, a pIC50 (human A2B receptor) of over 7.00 and a pIC50 (human A1 receptor) of over 6.00 were found for `COc1ncc(C2CCOCC2)c2sc(NC(=O)N3CCC(C)(O)CC3)nc12` [compound 30, 4-Hydroxy-4-methyl-piperidine-1-carboxylic acid [4-methoxy-7-(tetrahydro-pyran-4-yl)-thiazolo[4,5-c]pyridin-2-yl]-amide] in this work. For the same compound, the pIC50 (human A3 receptor) was under 6.00.
A pIC50 (human A2A receptor) of over 7.00, a pIC50 (human A2B receptor) of over 7.00 and a pIC50 (human A1 receptor) of under 6.00 were found for `COc1ncc(N2CC3(CCCO3)C2)c2sc(NC(=O)c3cnn(C)c3)nc12` [compound 156, 1-Methyl-1H-pyrazole-4-carboxylic acid [4-methoxy-7-(5-oxa-2-aza-spiro[3.4]oct-2-yl)-thiazolo[4,5-c]pyridin-2-yl]-amide] in this work. The pIC50 (human A3 receptor) was over 6.00.
A pIC50 (human A2A receptor) of over 8.00, a pIC50 (human A2B receptor) of over 7.00 and a pIC50 (human A1 receptor) of under 6.00 were found for `COc1ncc(-c2ccccc2F)c2sc(NC(=O)N3CCC4(CCOCC4)C3)nc12` [compound 195, 8-Oxa-2-aza-spiro[4.5]decane-2-carboxylic acid [7-(2-fluoro-phenyl)-4-methoxy-thiazolo[4,5-c]pyridin-2-yl]-amide] in this work. For the same compound, the pIC50 (human A3 receptor) was under 6.00.
A pIC50 (human A2A receptor) of over 7.00, a pIC50 (human A2B receptor) of over 7.00 and a pIC50 (human A1 receptor) of under 6.00 were found for `COc1ccccc1-c1cnc(OC)c2nc(NC(=O)N3CCC4(CCOCC4)C3)sc12` [compound 236, N-[4-methoxy-7-(2-methoxyphenyl)-[1,3]thiazolo[4,5-c]pyridin-2-yl]-8-oxa-2-azaspiro[4.5]decane-2-carboxamide] in this work. For the same compound, the pIC50 (human A3 receptor) was under 6.00.
A pIC50 (human A2A receptor) of over 8.00, a pIC50 (human A2B receptor) of over 8.00 and a pIC50 (human A3 receptor) of over 6.00 were found for `COc1ncc(-c2ccccc2)c2sc(NC(=O)c3cnn(C)c3)nc12` [compound 188, 1-Methyl-1H-pyrazole-4-carboxylic acid (4-methoxy-7-phenyl-thiazolo[4,5-c]pyridin-2-yl)-amide] in this work.
A pIC50 (human A2A receptor) of over 8.00, a pIC50 (human A2B receptor) of over 7.00 and a pIC50 (human A1 receptor) of under 6.00 were found for `COc1ncc(N2CCOCC2)c2sc(NC(=O)c3ccc(C(=O)N(C)C)cc3)nc12` [compound 15, N-(4-Methoxy-7-morpholin-4-yl-thiazolo[4,5-c]pyridin-2-yl)-N′,N′-dimethyl-terephthalamide] in this work. For the same compound, the pIC50 (human A3 receptor) was under 6.00.
A pIC50 (human A2A receptor) of over 8.00, a pIC50 (human A2B receptor) of over 6.00 and a pIC50 (human A1 receptor) of under 6.00 were found for `COc1ncc(N2CCOCC2)c2sc(NC(=O)N3CCC4(CCOC4)C3)nc12` (centres unmarked) [compound 9, 2-Oxa-7-aza-spiro[4.4]nonane-7-carboxylic acid (4-methoxy-7-morpholin-4-yl-thiazolo[4,5-c]pyridin-2-yl)-amide] in this work. The pIC50 (human A3 receptor) was under 6.00.
A pIC50 (human A2A receptor) of over 8.00, a pIC50 (human A2B receptor) of over 7.00 and a pIC50 (human A1 receptor) of under 6.00 were found for `COc1ncc(-c2cccc(F)c2F)c2sc(NC(=O)N3CCC4(CCOCC4)C3)nc12` [compound 209, 8-Oxa-2-aza-spiro[4.5]decane-2-carboxylic acid [7-(2,3-difluoro-phenyl)-4-methoxy-thiazolo[4,5-c]pyridin-2-yl]-amide] in this work. For the same compound, the pIC50 (human A3 receptor) was under 6.00.
A pIC50 (human A2A receptor) of over 8.00, a pIC50 (human A2B receptor) of over 7.00 and a pIC50 (human A1 receptor) of over 6.00 were found for `COCc1ccc(C(=O)Nc2nc3c(OC)ncc(C4CCOCC4)c3s2)cc1` [compound 23, 4-Methoxymethyl-N-[4-methoxy-7-(tetrahydro-pyran-4-yl)-thiazolo[4,5-c]pyridin-2-yl]-benzamide] in this work. The pIC50 (human A3 receptor) was under 6.00.
A pIC50 (human A2A receptor) of over 8.00, a pIC50 (human A2B receptor) of over 7.00 and a pIC50 (human A3 receptor) of under 6.00 were found for `COc1ncc(-c2cccnc2)c2sc(NC(=O)c3ccc(C(=O)N(C)C)cc3)nc12` [compound 218, N-(4-Methoxy-7-pyridin-3-yl-thiazolo[4,5-c]pyridin-2-yl)-N′,N′-dimethyl-terephthalamide] in this work.
A pIC50 (human A2A receptor) of over 8.00, a pIC50 (human A2B receptor) of over 7.00 and a pIC50 (human A3 receptor) of over 6.00 were found for `COc1nc(C#N)c(N2CCOCC2)c2sc(NC(=O)c3cnn(C)c3)nc12` [compound 217, 1-Methyl-1H-pyrazole-4-carboxylic acid (6-cyano-4-methoxy-7-morpholin-4-yl-thiazolo[4,5-c]pyridin-2-yl)-amide] in this work.
A pIC50 (human A2A receptor) of over 8.00, a pIC50 (human A2B receptor) of over 8.00 and a pIC50 (human A3 receptor) of under 6.00 were found for `COc1nc(F)c(N2CCOCC2)c2sc(NC(=O)c3ccc(N4C(=O)CCC4=O)cc3)nc12` [compound 226, 4-(2,5-Dioxo-pyrrolidin-1-yl)-N-(6-fluoro-4-methoxy-7-morpholin-4-yl-thiazolo[4,5-c]pyridin-2-yl)-benzamide] in this work.
A pIC50 (human A2A receptor) of over 8.00, a pIC50 (human A2B receptor) of over 7.00 and a pIC50 (human A3 receptor) of under 6.00 were found for `COCCOc1cccc(-c2cnc(OC)c3nc(NC(=O)N4CCC5(CCOCC5)C4)sc23)c1` [compound 225, 8-Oxa-2-aza-spiro[4.5]decane-2-carboxylic acid (4-methoxy-7-[3-(2-methoxy-ethoxy)-phenyl]-thiazolo[4,5-c]pyridin-2-yl}-amide] in this work.
A pIC50 (human A2A receptor) of over 8.00, a pIC50 (human A2B receptor) of over 7.00 and a pIC50 (human A3 receptor) of over 6.00 were found for `COc1nc(Br)c(N2CCOCC2)c2sc(NC(=O)c3cnn(C)c3)nc12` [compound 178, 1-Methyl-1H-pyrazole-4-carboxylic acid (6-bromo-4-methoxy-7-morpholin-4-yl-thiazolo[4,5-c]pyridin-2-yl)-amide] in this work.
A pIC50 (human A2A receptor) of over 8.00, a pIC50 (human A2B receptor) of over 8.00 and a pIC50 (human A3 receptor) of over 6.00 were found for `COc1nc(F)c(N2CCOCC2)c2sc(NC(=O)c3cnn(C)c3)nc12` [compound 165, 1-Methyl-1H-pyrazole-4-carboxylic acid (6-fluoro-4-methoxy-7-morpholin-4-yl-thiazolo[4,5-c]pyridin-2-yl)-amide] in this work.
A pIC50 (human A2A receptor) of over 8.00, a pIC50 (human A2B receptor) of over 7.00 and a pIC50 (human A3 receptor) of under 6.00 were found for `COc1ncc(-c2cnn(C)c2)c2sc(NC(=O)c3cnc(C)s3)nc12` [compound 131, 2-Methyl-thiazole-5-carboxylic acid [4-methoxy-7-(1-methyl-1H-pyrazol-4-yl)-thiazolo[4,5-c]pyridin-2-yl]-amide] in this work.
A pIC50 (human A2A receptor) of over 8.00, a pIC50 (human A2B receptor) of over 7.00 and a pIC50 (human A3 receptor) of over 6.00 were found for `COCCOc1cccc(-c2cnc(OC)c3nc(NC(=O)c4ccc(C(=O)N(C)C)cc4)sc23)c1` [compound 224, N-{4-Methoxy-7-[3-(2-methoxy-ethoxy)-phenyl]-thiazolo[4,5-c]pyridin-2-yl}-N′,N′-dimethyl-terephthalamide] in this work.
A pIC50 (human A2A receptor) of over 8.00, a pIC50 (human A2B receptor) of over 7.00 and a pIC50 (human A3 receptor) of over 6.00 were found for `COc1ncc(-c2ccccc2)c2sc(NC(=O)c3ccc(C(=O)NCCO)cc3)nc12` [compound 228, N-(2-Hydroxy-ethyl)-N′-(4-methoxy-7-phenyl-thiazolo[4,5-c]pyridin-2-yl)-terephthalamide] in this work.
A pIC50 (human A2A receptor) of over 8.00, a pIC50 (human A2B receptor) of over 8.00 and a pIC50 (human A3 receptor) of under 6.00 were found for `COc1ncc(-c2ccccc2)c2sc(NC(=O)c3ccc(C(=O)N(C)CCO)cc3)nc12` [compound 227, N-(2-Hydroxy-ethyl)-N′-(4-methoxy-7-phenyl-thiazolo[4,5-c]pyridin-2-yl)-N-methyl-terephthalamide] in this work.
A pIC50 (human A2A receptor) of over 8.00, a pIC50 (human A2B receptor) of over 7.00 and a pIC50 (human A3 receptor) of over 6.00 were found for `COc1ncc(-c2ccccc2)c2sc(NC(=O)c3ccc(C(=O)NCCN(C)C)cc3)nc12` [compound 230, N-(2-Dimethylamino-ethyl)-N′-(4-methoxy-7-phenyl-thiazolo[4,5-c]pyridin-2-yl)-terephthalamide] in this work.
A pIC50 (human A2A receptor) of over 8.00, a pIC50 (human A2B receptor) of over 7.00 and a pIC50 (human A1 receptor) of under 6.00 were found for `COc1ncc(-c2ccncc2)c2sc(NC(=O)c3ccc(C(=O)N(C)C)cc3)nc12` [compound 219, N-(4-Methoxy-7-pyridin-4-yl-thiazolo[4,5-c]pyridin-2-yl)-N′,N′-dimethyl-terephthalamide] in this work.
A pIC50 (human A2A receptor) of over 8.00, a pIC50 (human A2B receptor) of over 7.00 and a pIC50 (human A3 receptor) of under 6.00 were found for `COc1nc(C)c(-c2ccccc2)c2sc(NC(=O)N3CCC4(CCOCC4)C3)nc12` [compound 223, 8-Oxa-2-aza-spiro[4.5]decane-2-carboxylic acid (4-methoxy-6-methyl-7-phenyl-thiazolo[4,5-c]pyridin-2-yl)-amide] in this work.
